# Experimental data: patent US20150174034A1, “TYROSINASE INHIBITORS” (Avon Products, Inc., priority 2013, published 2015)
# Key:
# Mushroom tyrosinase = Mushroom tyrosinase assay; assay type: biochemical; settings: L-Tyrosine substrate, 25° C., 30 min
# Experimental: Mushroom tyrosinase and L-Tyrosine were obtained from Sigma-Aldrich, Inc. (St. Louis, Mo.). The enzyme activity was measured in buffer containing 100 mM phosphate buffer pH 6.8, 5% absolute ethanol, 2 micrograms/milliliter mushroom tyrosinase, and 0.2 mg/ml L-Tyrosine. The reaction (conversion of L-Tyrosine to DOPAchrome) was conducted in triplicates at 25° C. for 30 min, and absorbance was then measured at 492 nm. Kojic Acid was used as a positive control inhibitor in these assays. Percent change in tyrosinase activity relative to vehicle control was calculated.
# B16 mouse melanoma cells = assay: Inhibition of melanin production, B16 melanoma cell assay; assay type: cell-based; settings: 4 days, alpha MSH, normalized to cell viability
# Experimental: The effects of various test compounds on melanin levels were determined by performing assays using B16 melanoma cells. These cells are known to constitutively produce melanin and are a commonly utilized and accepted model system for monitoring the inhibition of melanin synthesis. The B16 mouse melanoma cells were seeded (ATCC, cat. #: CRL-6475) into 96-well tissue culture-treated plates (BD Falcon) and treated with test actives or controls in phenol red free DMEM (Mediatech; cat. #: 17-205-CV) with 2 nanogram/ml of alpha MSH (Fluka; cat #:63605). The cells were examined for their ability to modulate pigment formation. […] Tests were performed in 6 replicates each. Following the treatment period (4 days), the level of pigment produced or melanin synthesized was quantified by reading the absorbance at 540 nm using a standard microplate reader (Tecan Group Ltd.).
# After quantifying the amount of melanin, cell viability was determined using the MTT conversion method. The MTT conversion method measures the reduction of the MTT dye from a yellow colored, water-soluble, tetrazolium salt to a bluish-purple colored insoluble formazan precipitate by NAD(P)H-dependent microsomal dehydrogenase enzymes, which only function in viable cells. The intensity of the blue color is indicative of cell viability. After quantifying the amount of melanin pigment produced, the cells were exposed to MTT dye solution (1 mg/ml) for two to three hours. Formazan material was solubilized with reagent alcohol (95% ethanol: 5% isopropanol) and shaken on an orbital shaker for 15-30 minutes. MTT dye uptake and conversion by viable cells were determined by measuring the extracted formazan at 570 nm using a microplate reader. Total pigmentation was calculated, normalized to cell viability values and expressed as the average percent change in melanin activity relative to control of the six experiments performed.
# The assay data in Table 2 uses the following scale: 0: <10% decrease; +: between […] decrease; ++: 31-50% decrease; +++: between 51-70% decrease; ++++: >71% decrease; C=cytotoxic
# [1] = tested on: Human Epidermal Melanocytes, neonatal, darkly pigmented donor (HEMn-DP); assay: Human primary melanocyte pigmentation assay (HEMn-DP); assay type: cell-based; settings: 5 days, normalized to cell viability
# Experimental: The effects of various test compounds on melanin productions were determined by performing assays using Human Epidermal Melanocytes, neonatal, darkly pigmented donor (HEMn-DP). The HEMn-DP cells were seeded (Invitrogen; cat. #: C-202-5C) into 6-well tissue culture-treated plates (BD Falcon) and treated with test actives or controls in Medium 254 (Invitrogen; cat. #: M-254-500) supplemented with 1% HMSG (Invitrogen; cat. #: S-002-5) and 1% P/S. The cells were examined for their ability to modulate pigment formation. […] Tests were performed in triplicates each. Following the treatment period (5 days), supernatants were aspirated. The melanin was extracted with 0.5 ml of 2N NaOH for 30 minutes at 80° C. The level of melanin synthesized within the cells was quantified by reading the absorbance at 405 nm using a standard microplate reader (Tecan Group Ltd.).
# The cell viability was determined using the MTT conversion method. The MTT conversion method measures the reduction of the MTT dye from a yellow colored, water-soluble, tetrazolium salt to a bluish-purple colored insoluble formazan precipitate by NAD(P)H-dependent microsomal dehydrogenase enzymes, which only function in viable cells. The intensity of the blue color is indicative of cell viability. […] The cells were then exposed to MTT dye solution (1 mg/ml) for two to three hours. Formazan material was solubilized with reagent alcohol (95% ethanol: 5% isopropanol) and shaken on an orbital shaker for 15-30 minutes. MTT dye uptake and conversion by viable cells were determined by measuring the extracted formazan at 570 nm using a microplate reader. Total pigmentation was calculated and normalized to cell viability values. The average percent change in melanin relative to control of the triplicates from the Human Primary Melanocyte Pigmentation Assay (HEMn-DP Pigmentation) is reported in the Table 3 in accordance with the scale: 0: <10% decrease in pigmentation level; +: between 11-30% decrease; ++: between 31-50% decrease; +++: between 51-70% decrease; ++++: >71% decrease; C=cytotoxic.
# [2] = tested on: MELANODERM (MEL-300-B) human skin model; assay: 3D skin equivalent tissue pigmentation assay (MELANODERM); assay type: cell-based; settings: topical, tissues collected Day 11
# Experimental: The effect of the tyrosinase inhibitors on melanin levels was investigated using a MELANODERM™ (MEL-300-B, MatTek Corp., Ashland, Mass.) human skin model. MELANODERM™ is a viable reconstituted three-dimensional human skin equivalent containing melanocytes derived from African-American donors. Tissues were maintained in culture medium EPI-100-NMM-113 at 37° C. as recommended by the manufacturer.
# 10 μl of the solution was applied topically to the MELANODERM™ tissue while culture medium was added on days 1, 2, 4, 7, and 9. Control tissues were treated with the 10 μl of corresponding vehicle only. On Day 11, tissues were collected and homogenized in a buffer containing 1% SDS, 50 mM EDTA, and 10 mM Tris, pH 6.8. To each homogenate, protease K (5 mg/ml) was added and incubated overnight at 45° C. Additional protease K was added and incubated for 4 hours at 45° C., followed by the addition of 0.5M sodium carbonate and 30% H2O2 and incubation at 80° C. for 30 minutes. The samples were cooled down to room temperature, and extracted with chloroform/methanol (2:1). After centrifugation at 10,000 g for 10 minutes, absorbance of the top phase was measured at 450 nm. Percent change in melanin levels in treated tissue was calculated relative to control. The average percent change in melanin relative to control of the three tissues is reported in the Table 4 in accordance with the scale: 0: <7% decrease in pigmentation level; +: between 8-14% decrease; ++: between 15-20% decrease; +++: between 21-30% decrease; ++++: >31% decrease; C=cytotoxic
smiles,measurement,setting,value
Oc1ccc(C=NNC(=S)NCC2CCCO2)c(O)c1 (centres unmarked) [AV6989],Tyrosinase Inhibition (percent change in tyrosinase activity compared to DMSO vehicle control),Mushroom tyrosinase; concentration 0.001%,−36%
same,Tyrosinase Inhibition (percent change in tyrosinase activity compared to DMSO vehicle control),Mushroom tyrosinase; concentration 0.01%,−75%
same,B16 Assay Pigmentation Decrease (percent change in melanin compared to DMSO vehicle control),B16 mouse melanoma cells; concentration 0.0001%,−79%
C/C(=N/NC(=S)NCC1CCCO1)c1ccc2c(c1)OCO2 (centres unmarked) [AV1221],B16 Assay Pigmentation Decrease (percent change in melanin compared to DMSO vehicle control),B16 mouse melanoma cells; concentration 0.0001%,++ (31-50% decrease)
same,B16 Assay Pigmentation Decrease (percent change in melanin compared to DMSO vehicle control),B16 mouse melanoma cells; concentration 0.001%,++++ (>71% decrease)
same,Human primary melanocyte pigmentation assay (change in melanin compared to DMSO vehicle control),[1]; concentration 0.0001%,+ (between 11-30% decrease)
same,Human primary melanocyte pigmentation assay (change in melanin compared to DMSO vehicle control),[1]; concentration 0.001%,++++ (>71% decrease)
same,3D Tissue Pigmentation Assay (change in melanin compared to vehicle control),[2]; concentration 0.05%,+++ (between 21-30% decrease)
same,3D Tissue Pigmentation Assay (change in melanin compared to vehicle control),[2]; concentration 0.1%,++ (between 15-20% decrease)
Cc1ccc(/C=N/NC(=S)NCC2CCCO2)s1 (centres unmarked) [AV3793],B16 Assay Pigmentation Decrease (percent change in melanin compared to DMSO vehicle control),B16 mouse melanoma cells; concentration 0.0001%,+ (between 20-30% decrease)
same,B16 Assay Pigmentation Decrease (percent change in melanin compared to DMSO vehicle control),B16 mouse melanoma cells; concentration 0.001%,+++ (between 51-70% decrease)
same,Human primary melanocyte pigmentation assay (change in melanin compared to DMSO vehicle control),[1]; concentration 0.0001%,0 (<10% decrease in pigmentation level)
same,Human primary melanocyte pigmentation assay (change in melanin compared to DMSO vehicle control),[1]; concentration 0.001%,+++ (between 51-70% decrease)
same,3D Tissue Pigmentation Assay (change in melanin compared to vehicle control),[2]; concentration 0.05%,++ (between 15-20% decrease)
same,3D Tissue Pigmentation Assay (change in melanin compared to vehicle control),[2]; concentration 0.1%,+++ (between 21-30% decrease)
C/C(=N/NC(=S)NC(C)C)c1ccc2c(c1)OCO2 [AV2043],B16 Assay Pigmentation Decrease (percent change in melanin compared to DMSO vehicle control),B16 mouse melanoma cells; concentration 0.0001%,++ (31-50% decrease)
same,Human primary melanocyte pigmentation assay (change in melanin compared to DMSO vehicle control),[1]; concentration 0.0001%,+ (between 11-30% decrease)
same,Human primary melanocyte pigmentation assay (change in melanin compared to DMSO vehicle control),[1]; concentration 0.001%,++ (between 31-50% decrease)
same,3D Tissue Pigmentation Assay (change in melanin compared to vehicle control),[2]; concentration 0.05%,+++ (between 21-30% decrease)
same,3D Tissue Pigmentation Assay (change in melanin compared to vehicle control),[2]; concentration 0.1%,+++ (between 21-30% decrease)
